The series is described as follows: Pharmacokinetic parameters of exogenous LEAP2 in healthy men (one-compartment model). Type of series: in vivo, human. The protocol: Eight healthy men, recruited among participants in the placebo-controlled, crossover study, were included in an additional clinical study investigating the kinetic parameters of exogenous LEAP2. Each participant underwent a single experimental day with intravenous infusion of LEAP2 (10 min at a rate of ∼101 pmol/kg/min followed by 110 min at ∼25 pmol/kg/min) (see Figure S1B for an overview of the clinical study design). […] Fasting schedule for participants and all instructions from 48 h prior to the experimental day were similar to the placebo-controlled, crossover study. […] LEAP2 infusion was started at timepoint 0 min and discontinued after 120 min. Blood samples were drawn every 15 min from timepoint −30 to 270 min and, additionally, at timepoints 118, 122, 124, 127 and 130 min. Plasma glucose was measured bedside every 15 min from timepoint −30 to 180 min and every 30 min from timepoint 180 to 270 min with a mean concentration of 4.85 ± 0.02 mmol/L. For analytical procedures related to plasma glucose and LEAP2 concentrations, please see the section “Human plasma analyses”. Every 30 min from time −30 to 270 min, participants rated appetite-related sensations on 100 mm VAS[34] with a score (median (interquartile range)) for hunger of 72 (59–79) mm, prospective food consumption 73 (65–82) mm, satiety 22 (14–33) mm, fullness 21 (12–31) mm, comfort 78 (72–90) mm, thirst 78 (71–89) mm and nausea 3.0 (0–9.0).
We constructed and applied a pharmacokinetic model to the data using the software Monolix (Monolix version 2019R1; Lixoft SAS, Antony, France). The parameters were estimated using the Stochastic Approximation EM algorithm.[22] The one-compartment model assumed input from both endogenous LEAP2 secretion and the exogenous LEAP2 infusion assuming that LEAP2 kinetics followed a single-exponential elimination. We assumed that the endogenous production of LEAP2 was constant i.e. not suppressed during infusion of exogenous LEAP2. This model probably represents a simplification of the actual physiological LEAP2 kinetics, but the data fitted well to model predictions.

Experimental findings from publication PMC9043997, “LEAP2 reduces postprandial glucose excursions and ad libitum food intake in healthy men” (Cell Reports Medicine, 2022) are described below.

For orientation: clearance means a measure of how efficiently the substance is removed, as volume per time. Broadly, the half-life is the time needed for the level to fall by half in the phase considered. Lower therefore signals rapid decline.

Where a SMILES comes first, the peptide text is derived from it. Bridges are numbered along the chain shown (N, C = ends).

Consider `CC[C@H](C)[C@@H]1NC(=O)[C@@H]2CSSC[C@@H](C(=O)N[C@@H](CO)C(=O)N[C@@H](CC(C)C)C(=O)N[C@@H](CO)C(=O)N[C@H](C(=O)N[C@@H](C)C(=O)N[C@@H](CCC(N)=O)C(=O)N[C@@H](CCC(=O)O)C(=O)O)C(C)C)NC(=O)[C@H](CCCNC(=N)N)NC(=O)[C@H](CCCNC(=N)N)NC(=O)[C@H](CCCCN)NC(=O)[C@H](CCCNC(=N)N)NC(=O)[C@H](CSSC[C@H](NC(=O)[C@H](CO)NC(=O)[C@H](C)NC(=O)CNC(=O)[C@@H](NC(=O)[C@@H]3CCCN3C(=O)[C@H](CCCNC(=N)N)NC(=O)[C@H](CC(C)C)NC(=O)[C@H](CO)NC(=O)[C@@H](NC(=O)CNC(=O)[C@H](CCCNC(=N)N)NC(=O)[C@H](Cc3c[nH]c4ccccc34)NC(=O)[C@H](Cc3ccccc3)NC(=O)[C@@H]3CCCN3C(=O)[C@@H](NC(=O)[C@@H](N)CCSC)[C@@H](C)O)C(C)C)[C@@H](C)CC)C(=O)N[C@@H](CCCNC(=N)N)C(=O)N[C@@H](CC(=O)O)C(=O)N[C@@H](CC(=O)O)C(=O)N[C@@H](CO)C(=O)N[C@@H](CCC(=O)O)C(=O)N2)NC(=O)[C@H](CC(C)C)NC(=O)[C@H](CCCNC(=N)N)NC(=O)[C@H]([C@@H](C)O)NC1=O` [LEAP2, liver-expressed antimicrobial peptide 2] (H-MTPFWRGVSLRPIGASCRDDSECITRLCRKRRCSLSVAQE-OH; disulfide 17-28, 23-33 (inferred); N-terminus and C-terminus assumed), for which, under “healthy men n = 8, iv 10 min at ~101 pmol/kg/min then 110 min at ~25 pmol/kg/min, plasma, radioimmunoassay, one-compartment model (Monolix)”, the “half-life of LEAP2” value was about 9 min. Further, the “endogenous production rate of LEAP2” value (healthy men n = 8, one-compartment model assuming constant endogenous production) is recorded as 1.9 ± 0.14 nmol/min. For the same compound, the Vd (male, human, plasma, healthy men n = 8, iv 10 min at ~101 pmol/kg/min then 110 min at ~25 pmol/kg/min, 150-min wash-out, one-compartment model (Monolix), read-out: volume of distribution of LEAP2) came to 14 ± 5.3 L. Further, the clearance (male, human, plasma, healthy men n = 8, iv 10 min at ~101 pmol/kg/min then 110 min at ~25 pmol/kg/min, one-compartment model (Monolix), read-out: metabolic clearance rate of LEAP2) came to 860 ± 170 mL/min. Further, the half-life (male, human, healthy men n = 8, iv 10 min at ~101 pmol/kg/min then 110 min at ~25 pmol/kg/min, plasma, radioimmunoassay, one-compartment model (Monolix)) stood at 9.1 ± 2.5 min.
